In patent publication US11858941B2, “Heterocyclic and heteroaryl compounds for treating Huntington's disease” (PTC THERAPEUTICS, INC., priority 2018, dated 2024) one finds IC50 data, which are given here for eleven compounds.

In this assay the test system is Endogenous Huntingtin Protein. The experiment in a line: Endogenous Huntingtin Protein Assay (Meso Scale Discovery ELISA-based electrochemiluminescence). Type of assay: cell-based. To be noted: MSD plates coated with MW1 (expanded polyglutamine) or MAB2166 capture antibody; lysates. In outline:
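MSD electrochemiluminescence sandwich ELISA: MW1 (expanded polyQ) or MAB2166 capture antibody at 1 μg/mL, samples incubated overnight at 4° C. Detection with rabbit monoclonal #5656S then SULFO-TAG anti-rabbit antibody, each 0.25 μg/mL for 1 h at room temperature.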
(In general: In an ELISA, binding on a coated surface is turned into a signal by an enzyme label.)

A word on the IC50: it is the concentration that gives 50% inhibition. In turn, `Cn1ncc(-c2ccc(-c3cc4nnn(C5CC(C)(C)NC(C)(C)C5)c4nn3)c(O)c2)c1F` [Cpd 121, 5-(5-fluoro-1-methyl-1H-pyrazol-4-yl)-2-[3-(2,2,6,6-tetramethylpiperidin-4-yl)-3H-[1,2,3]triazolo[4,5-c]pyridazin-6-yl]phenol] came in with an IC50 of at most 100 nM.
In turn, `CC1(C)C=C(c2csc3cc(-c4ccc(-c5cn[nH]c5)cc4O)nnc23)CC(C)(C)N1` [Cpd 17, 5-(1H-pyrazol-4-yl)-2-[7-(2,2,6,6-tetramethyl-1,2,3,6-tetrahydropyridin-4-yl)thieno[3,2-c]pyridazin-3-yl]phenol] had a concentration for half-maximal inhibition (IC50) of at most 100 nM.
On to `Cc1cn(-c2ccc(-c3cc4nnn(C5CC(C)(C)NC(C)(C)C5)c4nn3)c(O)c2)cn1` [Cpd 144, 5-(4-methyl-1H-imidazol-1-yl)-2-[3-(2,2,6,6-tetramethylpiperidin-4-yl)-3H-[1,2,3]triazolo[4,5-c]pyridazin-6-yl]phenol], for which the IC50 is at most 100 nM.
The same measure for `CC1(C)CC(n2nnc3cc(-c4ccc(-c5c[nH]nc5C(F)(F)F)cc4O)nnc32)CC(C)(C)N1` [Cpd 139, 2-[3-(2,2,6,6-tetramethylpiperidin-4-yl)-3H-[1,2,3]triazolo[4,5-c]pyridazin-6-yl]-5-[3-(trifluoromethyl)-1H-pyrazol-4-yl]phenol]: 100 to 500 nM; for `CC1(C)CC(n2nnc3cc(-c4ccc(-n5cncn5)cc4O)nnc32)CC(C)(C)N1` [Cpd 63, 2-[3-(2,2,6,6-tetramethylpiperidin-4-yl)-3H-[1,2,3]triazolo[4,5-c]pyridazin-6-yl]-5-(1H-1,2,4-triazol-1-yl)phenol]: at most 100 nM.
The same measure for `Cn1cc(-c2ccc(-c3cc4nnn(C5CC(C)(C)NC(C)(C)C5)c4nn3)c(O)c2)nn1` [Cpd 138, 5-(1-methyl-1H-1,2,3-triazol-4-yl)-2-[3-(2,2,6,6-tetramethylpiperidin-4-yl)-3H-[1,2,3]triazolo[4,5-c]pyridazin-6-yl]phenol]: 100 to 500 nM; for `Oc1cc(-c2cn[nH]c2)ccc1-c1cc2[nH]cc(C3CCNCC3)c2nn1` [Cpd 12, 2-[7-(piperidin-4-yl)-5H-pyrrolo[3,2-c]pyridazin-3-yl]-5-(1H-pyrazol-4-yl)phenol]: 100 to 500 nM.
Compound `CC1(C)CC(n2c(O)nc3cc(-c4ccc(-c5cn[nH]c5)cc4O)nnc32)CC(C)(C)N1` [Cpd 9, 3-[2-hydroxy-4-(1H-pyrazol-4-yl)phenyl]-7-(2,2,6,6-tetramethylpiperidin-4-yl)-7H-imidazo[4,5-c]pyridazin-6-ol] came in with an IC50 of 1000 to 3000 nM.
For `CN(C)c1cc(-c2ccc(-c3cc4nnn(C5CC(C)(C)NC(C)(C)C5)c4nn3)c(O)c2)ccn1` [Cpd 100, 5-[2-(dimethylamino)pyridin-4-yl]-2-[3-(2,2,6,6-tetramethylpiperidin-4-yl)-3H-[1,2,3]triazolo[4,5-c]pyridazin-6-yl]phenol] the value was 1000 to 3000 nM.
The compound `CC1(C)CC(n2nnc3cc(-c4ccc(-c5cc[nH]c5)cc4O)nnc32)CC(C)(C)N1` [Cpd 80, 5-(1H-pyrrol-3-yl)-2-[3-(2,2,6,6-tetramethylpiperidin-4-yl)-3H-[1,2,3]triazolo[4,5-c]pyridazin-6-yl]phenol] displayed an IC50 of 100 to 500 nM.
For `CC1(C)CC(n2nnc3cc(-c4ccc(-c5ccn6nncc6c5)cc4O)nnc32)CC(C)(C)N1` [Cpd 125, 2-[3-(2,2,6,6-tetramethylpiperidin-4-yl)-3H-[1,2,3]triazolo[4,5-c]pyridazin-6-yl]-5-([1,2,3]triazolo[1,5-a]pyridin-5-yl)phenol] the value was 100 to 500 nM.
